This is an account of results in ChEMBL document CHEMBL1201862, “PubChem BioAssay data set” (2004).

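Briefly, cells in 96-well plates were exposed to five compound concentrations for 48 h, and endpoints were estimated by linear interpolation. Abbreviation: GI50, concentration required for 50% inhibition of growth.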 The source made the active and inactive calls. Rule as the data show it: active = GI50 up to about 1.1 µM and inactive = higher. Where only a bound is given, the exact number is not on record here.

Test systems include HOP-92; COLO 205; HL-60; OVCAR-5; SK-MEL-28; SNB-75; IGROV-1; NCI-H226; ACHN; TK-10; HCT-15; DU-145; CCRF-CEM; A498; OVCAR-4; UO-31; NCI-H522; HT-29; M14.
Assay in all cases: inhibition of tumour cell growth, NCI panel, 48 h

In the case of `Cn1c2ccccc2c2ccc3c(c21)C(=O)c1ccc2c4ccccc4n(C)c2c1C3=O`, the GI50 with HOP-92, in the test with COLO 205, in the test with HL-60, in the test on OVCAR-5, with SK-MEL-28 and in the test with SNB-75 was > 100 µM (inactive) in each case. For the same molecule, the GI50 in the test on IGROV-1 is > 100 µM (inactive); in the test with NCI-H226 it was > 100 µM (inactive); in the test with ACHN, > 100 µM (inactive); in the test with TK-10 it was > 100 µM (inactive); with HCT-15 it was more than 100 µM; in the test on DU-145, > 100 µM (inactive). In addition, the GI50 with CCRF-CEM was > 100 µM (inactive); in the test on A498, > 100 µM (inactive); in the test with OVCAR-4, > 65.5 µM (inactive); in the test with UO-31, > 100 µM (inactive); in the test on NCI-H522 it was > 100 µM (inactive); in the test with HT-29 it was > 100 µM (inactive). The GI50 with M14 is > 100 µM (inactive).
Turning to `COc1ccc(C2c3cc4c(cc3OC(N3CCOCC3)C2C)OCO4)c(OC)c1` (centres undefined), the GI50 in the test with HOP-92 is 3.32 µM (inactive); in the test with COLO 205 it was 9.33 µM (inactive); in the test on HL-60 it was 2.7 µM (inactive); with OVCAR-5, 19.1 µM (inactive); with SK-MEL-28, 8.49 µM (inactive); in the test on SNB-75, 3.95 µM (inactive). The GI50 with IGROV-1 was 7.59 µM (inactive); with NCI-H226, 3.72 µM (inactive); in the test with ACHN, 9.48 µM (inactive); in the test on TK-10 it was 7.78 µM (inactive); with HCT-15, 4.34 µM; in the test with DU-145, 9.89 µM (inactive). Moreover, the GI50 in the test with CCRF-CEM was 3.5 µM (inactive); with A498 it was 4.68 µM (inactive); in the test on OVCAR-4 it was 10 µM (inactive); in the test with UO-31 it was 9.06 µM (inactive); in the test on NCI-H522, 2.68 µM (inactive); with HT-29, 3.48 µM (inactive). Also, in the test with M14, the GI50 is 3.96 µM (inactive).
Consider `CCOC(=O)c1sc(N/N=C2\NC(=O)/C(=C/c3ccc([N+](=O)[O-])cc3)S2)nc1C`, for which the GI50 with HOP-92 is 16.9 µM (inactive); in the test with COLO 205, 25.1 µM (inactive); in the test on HL-60, 22.8 µM (inactive); with OVCAR-5, 22.6 µM (inactive); in the test with SK-MEL-28 it was 32.1 µM (inactive); in the test with SNB-75, 25.8 µM (inactive). Also, the GI50 was 14 µM (inactive) with IGROV-1; 18.7 µM (inactive) in the test on NCI-H226; 21.8 µM (inactive) in the test on ACHN; 35.3 µM (inactive) in the test with TK-10; 19.7 µM in the test on HCT-15; 16.8 µM (inactive) in the test with DU-145. Further, the GI50 in the test with CCRF-CEM is 15.1 µM (inactive); in the test on A498, 26.1 µM (inactive); in the test with OVCAR-4 it was 26.1 µM (inactive); in the test with UO-31, 16.2 µM (inactive); in the test on NCI-H522 it was 17.7 µM (inactive); in the test on HT-29 it was 25.2 µM (inactive). Moreover, the GI50 with M14 was 28.8 µM (inactive).
As for `Cc1nc2c(nc1C)-c1c(c3c(n1C)C(=O)CCC3)C(=O)C2=O`, the GI50 in the test on HOP-92 is 1.29 µM (inactive); with COLO 205 it was 1.75 µM (inactive); in the test on HL-60, 0.232 µM (active); with OVCAR-5, 0.953 µM (active); with SK-MEL-28, 0.622 µM (active); with SNB-75, 0.931 µM (active). In addition, the GI50 in the test with IGROV-1 is 0.337 µM (active); with NCI-H226 it was 1.41 µM (inactive); in the test with ACHN it was 0.476 µM (active); in the test with TK-10, 2.22 µM (inactive); with HCT-15 it was 0.334 µM; in the test with DU-145, 0.592 µM (active). In addition, the GI50 was 0.219 µM (active) with CCRF-CEM; 0.984 µM (active) in the test with A498; 0.145 µM (active) in the test on OVCAR-4; 0.456 µM (active) in the test with UO-31; 0.434 µM (active) with NCI-H522; 1.98 µM (inactive) in the test with HT-29. Besides, in the test with M14, the GI50 is 0.338 µM (active).
Consider `CC1(C)CCC(=O)NC1CC(=O)CC1NC(=O)CCC1(C)C` (centres undefined), for which the GI50 was > 100 µM (inactive) in the test with HOP-92; > 100 µM (inactive) in the test with COLO 205; 32.7 µM (inactive) in the test with HL-60; > 100 µM (inactive) in the test on OVCAR-5; > 100 µM (inactive) in the test on SK-MEL-28; > 100 µM (inactive) with SNB-75. Moreover, the GI50 in the test on IGROV-1 is > 100 µM (inactive); in the test with NCI-H226, > 100 µM (inactive); with ACHN, > 100 µM (inactive); with TK-10, > 100 µM (inactive); in the test with HCT-15, more than 100 µM; in the test with DU-145 it was > 100 µM (inactive). Besides, the GI50 in the test on CCRF-CEM, in the test on A498, in the test on OVCAR-4, in the test on UO-31, with NCI-H522 and in the test on HT-29 was > 100 µM (inactive) throughout. The GI50 with M14 was > 100 µM (inactive).
Take `CCCNCC(O)CNc1ccc(NCC(O)CNCCC)c2c1C(=O)c1ccccc1C2=O` (centres undefined): the GI50 in the test with HOP-92 was 2.07 µM (inactive); with COLO 205 it was 2.31 µM (inactive); in the test with HL-60, 2.52 µM (inactive); in the test with OVCAR-5 it was 1.61 µM (inactive); in the test on SK-MEL-28, 2.96 µM (inactive); in the test on SNB-75 it was 2.29 µM (inactive). The GI50 with IGROV-1 was 2.04 µM (inactive); in the test with NCI-H226, 2 µM (inactive); with ACHN, 8.83 µM (inactive); in the test with TK-10, 10.6 µM (inactive); in the test on HCT-15, 43.9 µM; in the test on DU-145, 6.22 µM (inactive). The GI50 in the test with CCRF-CEM was 0.998 µM (active); in the test on A498, 11.7 µM (inactive); in the test with OVCAR-4 it was 3.07 µM (inactive); with UO-31, 12.6 µM (inactive); with NCI-H522 it was 1.21 µM (inactive); with HT-29, 2.17 µM (inactive). In addition, the GI50 in the test on M14 is 3.33 µM (inactive).
Consider `COc1ccc(-c2cn3c(n2)sc2cc(C)ccc23)cc1`, for which the GI50 in the test on HOP-92 is 2.86 µM (inactive); in the test on COLO 205, 5.51 µM (inactive); with HL-60, 3.45 µM (inactive); in the test on OVCAR-5 it was 43.2 µM (inactive); in the test on SK-MEL-28, 38.3 µM (inactive); with SNB-75, 17.4 µM (inactive). Further, the GI50 in the test on IGROV-1 is 7.19 µM (inactive); in the test with NCI-H226 it was 15.2 µM (inactive); in the test on ACHN, 28.4 µM (inactive); with TK-10, 22.1 µM (inactive); with HCT-15, 38.5 µM; in the test on DU-145, 23.2 µM (inactive). Moreover, the GI50 in the test with CCRF-CEM was 19.8 µM (inactive); in the test with A498 it was 21.3 µM (inactive); in the test on OVCAR-4, 10.9 µM (inactive); in the test with UO-31, 42.3 µM (inactive); in the test on NCI-H522, 5.55 µM (inactive); in the test with HT-29, 5.96 µM (inactive). For the same molecule, the GI50 in the test on M14 is 26.1 µM (inactive).
In the case of `CC(=O)c1ccc2c(c1)CC1(C2)Cc2ccc3c(c2C1=O)CCC3` (centres undefined), the GI50 was 14.2 µM (inactive) in the test on HOP-92; 18.3 µM (inactive) in the test with COLO 205; 8.26 µM (inactive) in the test on HL-60; 36.8 µM (inactive) with OVCAR-5; 20.3 µM (inactive) in the test with SK-MEL-28; 20 µM (inactive) with SNB-75. The GI50 was 55.2 µM (inactive) in the test on IGROV-1; 19 µM (inactive) in the test on NCI-H226; 27.7 µM (inactive) in the test with ACHN; 24 µM (inactive) in the test on TK-10; 25 µM in the test on HCT-15; 31.3 µM (inactive) in the test on DU-145. Also, the GI50 was 24.3 µM (inactive) in the test on CCRF-CEM; 39.3 µM (inactive) with A498; 19.2 µM (inactive) in the test with OVCAR-4; 28.4 µM (inactive) in the test with UO-31; 19.1 µM (inactive) in the test on NCI-H522; 15.2 µM (inactive) in the test on HT-29. The GI50 with M14 is 20 µM (inactive).
`C=C(C)CCC1CCCCC(CN(C)C)C1=O` (centres undefined): the GI50 in the test with HOP-92, in the test on COLO 205, with HL-60, in the test on OVCAR-5, with SK-MEL-28 and with SNB-75 was > 100 µM (inactive) throughout. The GI50 in the test with IGROV-1 was > 100 µM (inactive); with NCI-H226, > 100 µM (inactive); in the test with ACHN, > 100 µM (inactive); in the test with TK-10, > 100 µM (inactive); with HCT-15 it was more than 100 µM; in the test with DU-145, > 100 µM (inactive). Besides, the GI50 in the test with CCRF-CEM was > 100 µM (inactive); in the test with A498, > 100 µM (inactive); with OVCAR-4, > 100 µM (inactive); in the test on UO-31 it was > 100 µM (inactive); in the test with NCI-H522, 10.7 µM (inactive); in the test with HT-29 it was > 100 µM (inactive). In addition, the GI50 in the test with M14 is > 100 µM (inactive).
`COP(=O)(OC)[C@@](O)(c1ccccc1)[C@@H](O)[C@H](O)c1ccccc1`: the GI50 with HOP-92, in the test with COLO 205, in the test on HL-60, in the test with OVCAR-5, with SK-MEL-28 and in the test on SNB-75 was > 100 µM (inactive) in each case. Also, the GI50 was > 100 µM (inactive) in the test with IGROV-1; > 100 µM (inactive) with NCI-H226; > 100 µM (inactive) with ACHN; > 100 µM (inactive) in the test on TK-10; more than 100 µM in the test with HCT-15; > 100 µM (inactive) in the test with DU-145. Further, the GI50 in the test with CCRF-CEM was 18.3 µM (inactive); with A498, > 100 µM (inactive); in the test on OVCAR-4, > 100 µM (inactive); in the test with UO-31, > 100 µM (inactive); with NCI-H522, > 100 µM (inactive); in the test with HT-29 it was > 100 µM (inactive). Besides, the GI50 in the test on M14 was > 100 µM (inactive).
For the molecule `COc1cc(/C=C2\C(=O)N(c3ccc(NC(C)=O)cc3)C(c3ccccc3)S2(=O)=O)cc(OC)c1OC` (centres undefined), the GI50 with HOP-92 is > 100 µM (inactive); with COLO 205 it was > 100 µM (inactive); with HL-60, 18.3 µM (inactive); in the test on OVCAR-5 it was > 100 µM (inactive); in the test on SK-MEL-28 it was > 100 µM (inactive); in the test with SNB-75, 43.6 µM (inactive). Further, the GI50 is > 100 µM (inactive) in the test with IGROV-1; > 100 µM (inactive) with NCI-H226; > 100 µM (inactive) in the test with ACHN; > 100 µM (inactive) in the test with TK-10; more than 100 µM in the test with HCT-15; > 100 µM (inactive) with DU-145. Further, the GI50 was 44.5 µM (inactive) in the test on CCRF-CEM; > 100 µM (inactive) in the test on A498; 60.8 µM (inactive) in the test on OVCAR-4; 66.5 µM (inactive) with UO-31; > 100 µM (inactive) in the test on NCI-H522; > 100 µM (inactive) with HT-29. In addition, the GI50 in the test on M14 was > 100 µM (inactive).
